Earlier results in patent publication US11773111B1, “Selective 5-LO inhibitors for the treatment of bronchial asthma” (KING FAISAL UNIVERSITY, priority 2022, dated 2023).

Legend:
[1] = clinical use
[2] = not given; remark: listed apart in the source

Structure (SMILES): CC(c1cc2ccccc2s1)N(O)C(N)=O (stereo not drawn) [Zileuton]
- undesirable side effects [1]: hepatoxicity
- serum half-life: 3 h
- plasma protein binding [2]: 93%
